What was measured:
Settings in all cases: 72 h
Caco-2 [1] = assay: drug sensitivity score (DSS) for viability; higher = more toxic; extreme values may be limits of the assay
U2OS [2] = assay: as above
Vero E6 [3] = assay: as above
HepG2 [4] = assay: as above
Calu-3 [5] = assay: as above
Caco-2 [6] = assay: relative viability EC50 (midpoint between 100% and the lowest measured viability); higher = less toxic
U2OS [7] = assay: as above
Vero E6 [8] = assay: as above
HepG2 [9] = assay: as above
Calu-3 [10] = assay: as above
Caco-2 [11] = assay: cell viability relative to DMSO; higher = less toxic
U2OS [12] = assay: as above
Vero E6 [13] = assay: as above
HepG2 [14] = assay: as above
Calu-3 [15] = assay: as above

| SMILES | drug sensitivity score (Caco-2 [1]) | drug sensitivity score (U2OS [2]) | drug sensitivity score (Vero E6 [3]) | drug sensitivity score (HepG2 [4]) | drug sensitivity score (Calu-3 [5]) | relative viability EC50 (Caco-2 [6]) [µM] | relative viability EC50 (U2OS [7]) [µM] | relative viability EC50 (Vero E6 [8]) [µM] | relative viability EC50 (HepG2 [9]) [µM] | relative viability EC50 (Calu-3 [10]) [µM] | cell viability (Caco-2 [11]; 1 nM) [%] | cell viability (Caco-2 [11]; 10 nM) [%] | cell viability (Caco-2 [11]; 100 nM) [%] | cell viability (Caco-2 [11]; 1000 nM) [%] | cell viability (Caco-2 [11]; 10000 nM) [%] | cell viability (U2OS [12]; 1 nM) [%] | cell viability (U2OS [12]; 10 nM) [%] | cell viability (U2OS [12]; 100 nM) [%] | cell viability (U2OS [12]; 1000 nM) [%] | cell viability (U2OS [12]; 10000 nM) [%] | cell viability (Vero E6 [13]; 1 nM) [%] | cell viability (Vero E6 [13]; 10 nM) [%] | cell viability (Vero E6 [13]; 100 nM) [%] | cell viability (Vero E6 [13]; 1000 nM) [%] | cell viability (Vero E6 [13]; 10000 nM) [%] | cell viability (HepG2 [14]; 1 nM) [%] | cell viability (HepG2 [14]; 10 nM) [%] | cell viability (HepG2 [14]; 100 nM) [%] | cell viability (HepG2 [14]; 1000 nM) [%] | cell viability (HepG2 [14]; 10000 nM) [%] | cell viability (Calu-3 [15]; 1 nM) [%] | cell viability (Calu-3 [15]; 10 nM) [%] | cell viability (Calu-3 [15]; 100 nM) [%] | cell viability (Calu-3 [15]; 1000 nM) [%] | cell viability (Calu-3 [15]; 10000 nM) [%] |
| --- | --- | --- | --- | --- | --- | --- | --- | --- | --- | --- | --- | --- | --- | --- | --- | --- | --- | --- | --- | --- | --- | --- | --- | --- | --- | --- | --- | --- | --- | --- | --- | --- | --- | --- | --- |
| Cc1c(Cl)c(C)[n+]([O-])c(Cl)c1-c1noc(-c2cc(O)c(O)c([N+](=O)[O-])c2)n1 [opicapone] | 0 | 0 | 0 | 0.4 | 0 | > 10 | > 10 | > 10 | > 10 | > 10 | 87.3 | 99 | 93.8 | 111 | 95.4 | 100 | 104 | 94.4 | 102 | 104 | 97.3 | 96.6 | 96.3 | 98.6 | 95.8 | 108 | 103 | 110 | 88.1 | 97.9 | 84.3 | 106 | 95.3 | 102 | 105 |
| CCCCCCCCCCC[C@@H](C[C@@H]1OC(=O)[C@H]1CCCCCC)OC(=O)[C@H](CC(C)C)NC=O [orlistat] | 0 | 0 | 0 | 0 | 0 | > 10 | > 10 | > 10 | > 10 | > 10 | 111 | 98.5 | 99.9 | 99 | 94.9 | 96 | 97.2 | 92.6 | 105 | 105 | 96.2 | 98.2 | 89.9 | 82.8 | 102 | 104 | 106 | 108 | 96.7 | 100 | 103 | 97.4 | 110 | 102 | 103 |
| CC(C)C[C@H](NC(=O)[C@H](CCCCN)NC(=O)[C@H](CCCNC(=N)N)NC(=O)[C@H](C)NC(=O)[C@H](CO)NC(=O)[C@H](CCCCN)NC(=O)[C@H](CCCNC(=N)N)NC(=O)[C@H](C)NC(=O)CNC(=O)[C@@H](NC(=O)[C@H](Cc1ccccc1)NC(=O)CNC(=O)CNC(=O)[C@@H](N)Cc1ccccc1)[C@@H](C)O)C(=O)N[C@@H](C)C(=O)N[C@@H](CC(N)=O)C(=O)N[C@@H](CCC(N)=O)C(=O)O [orphanin-fq] | 0 | 0 | 0 | 0 | 0 | > 10 | > 10 | > 10 | > 10 | > 10 | 90.9 | 93.6 | 104 | 106 | 96.5 | 98.1 | 93.3 | 97.7 | 97.5 | 96.1 | 92.2 | 99.7 | 95.3 | 97.1 | 98.6 | 94.3 | 97.4 | 94.5 | 98.7 | 106 | 104 | 107 | 101 | 112 | 96.8 |
| CCN(CC)CC1CCCCN1CC(=O)N1c2ccccc2C(=O)Nc2cccnc21 (stereo not given) [otenzepad] | 0 | 0 | 0 | 0 | 0 | > 10 | > 10 | > 10 | > 10 | > 10 | 104 | 104 | 108 | 97.6 | 98.8 | 100 | 102 | 102 | 100 | 97.4 | 97.8 | 97 | 95.7 | 92.4 | 99.5 | 94.3 | 104 | 92.3 | 101 | 98.9 | 102 | 105 | 96 | 96.3 | 101 |
| O=C1CCC[C@@H]2[C@H]3CCC[N+]4([O-])CCC[C@@H](CN12)[C@@H]34 (stereo not given in full) [oxymatrine] | 0 | 0 | 0 | 0 | 0 | > 10 | > 10 | > 10 | > 10 | > 10 | 97.1 | 103 | 96.6 | 95.5 | 88.3 | 97.8 | 106 | 98 | 102 | 96.7 | 102 | 97.5 | 101 | 98.4 | 104 | 104 | 97.6 | 98.5 | 96.3 | 108 | 89 | 93.1 | 101 | 91.7 | 86.9 |
| NC(=O)CC[C@H](NC(=O)Cc1ccccc1)C(=O)O [phenylacetylglutamine] | 0 | 0 | 0 | 0 | 0 | > 10 | > 10 | > 10 | > 10 | > 10 | 91.4 | 101 | 82.2 | 96 | 92.9 | 97 | 101 | 97.8 | 92.2 | 97.5 | 104 | 94.6 | 103 | 100 | 105 | 93.9 | 94.4 | 96.2 | 90.9 | 98.5 | 90.6 | 102 | 94.9 | 95.8 | 98.3 |
| O=S(=O)(O)c1ccc2[nH]c(-c3ccccc3)nc2c1 [phenylbenzimidazole-sulfonic-acid] | 0 | 0 | 0 | 0 | 0 | > 10 | > 10 | > 10 | > 10 | > 10 | 98.9 | 95.8 | 90.3 | 93 | 96.8 | 97.9 | 96.7 | 103 | 99.3 | 99.4 | 96.3 | 89.7 | 97.3 | 96.7 | 107 | 85.6 | 93 | 93.2 | 94.3 | 99.2 | 111 | 112 | 106 | 105 | 89.2 |
| CNC(=S)C1(c2ccccn2)CCCS1 (stereo not given) [picartamide] | 0 | 0 | 0 | 0 | 0 | > 10 | > 10 | > 10 | > 10 | > 10 | 94.1 | 96.8 | 92.9 | 95.1 | 99.4 | 99.5 | 104 | 96.2 | 99.4 | 106 | 103 | 96.5 | 106 | 101 | 93.7 | 98.3 | 93.6 | 103 | 99.6 | 97.8 | 96.9 | 93 | 102 | 106 | 106 |
| Cc1cccc(C)c1NC(=O)CC12CCCN1CCC2 [pilsicainide] | 0 | 0 | 0 | 0 | 0 | > 10 | > 10 | > 10 | > 10 | > 10 | 104 | 83.8 | 95 | 94.7 | 91.9 | 96.3 | 92.8 | 99.4 | 94.7 | 102 | 102 | 98.7 | 99.9 | 100 | 100 | 86.5 | 102 | 90.2 | 99.4 | 91.1 | 106 | 94.6 | 87.8 | 102 | 94.7 |
| CC(C)(C)C(=O)OCOC(=O)[C@@H]1N2C(=O)[C@@H](/N=C/N3CCCCCC3)[C@H]2SC1(C)C [pivmecillinam] | 0 | 0 | 0 | 0 | 0 | > 10 | > 10 | > 10 | > 10 | > 10 | 88.8 | 92.9 | 93.3 | 90.7 | 97.2 | 102 | 99.8 | 103 | 98.9 | 104 | 106 | 102 | 96.6 | 104 | 92.8 | 94.7 | 92.7 | 96.1 | 95.5 | 91.9 | 90.9 | 93.1 | 97.9 | 94.9 | 112 |
| CCC/N=C1\S/C(=C\c2ccc(OC[C@H](O)CO)c(Cl)c2)C(=O)N1c1ccccc1C [ponesimod] | 0.7 | 0 | 0 | 0 | 0 | > 10 | > 10 | > 10 | > 10 | > 10 | 91.2 | 100 | 95.6 | 99 | 79.6 | 98.5 | 100 | 100 | 101 | 98.4 | 100 | 94 | 91.5 | 91.5 | 93.7 | 95.8 | 89.6 | 99.5 | 102 | 91.6 | 90.5 | 103 | 105 | 105 | 108 |
| CCC1(c2ccccc2)C(=O)NCNC1=O [primidone] | 0 | 0 | 0 | 0.2 | 0 | > 10 | > 10 | > 10 | > 10 | > 10 | 93.1 | 100 | 84.5 | 101 | 115 | 102 | 98.3 | 101 | 102 | 107 | 94.5 | 95.1 | 92 | 92.2 | 95.3 | 112 | 78.9 | 89.4 | 84.9 | 96.3 | 102 | 94.8 | 105 | 94.1 | 114 |
| C[C@H](NCc1ccc(OCc2ccccc2F)cc1)C(N)=O [priralfinamide] | 0 | 0 | 0 | 0 | 0 | > 10 | > 10 | > 10 | > 10 | > 10 | 97.8 | 104 | 91.6 | 95 | 91.2 | 99.2 | 102 | 96.5 | 99.6 | 97.6 | 99.5 | 95.3 | 99.4 | 92.3 | 91.7 | 98 | 87.3 | 98.5 | 97.4 | 93.6 | 103 | 95.2 | 105 | 91.5 | 99.5 |
| CN(C)CCCN1c2ccccc2Sc2ccccc21 [promazine] | 0 | 0 | 0 | 0.1 | 0 | > 10 | > 10 | > 10 | > 10 | > 10 | 95.5 | 98.3 | 93.6 | 96.1 | 102 | 98.7 | 102 | 96.4 | 96.3 | 99.5 | 102 | 100 | 95.1 | 97.2 | 96 | 102 | 89.6 | 102 | 93.5 | 87.6 | 93.7 | 102 | 95.2 | 95.6 | 101 |

From the supplement of paper PMC13380429
